Experiments:
[1] = tested on: Flk-1+ cells isolated from day 3.25 Ainv-Notch4 EBs; assay: Cardiac assay of reaggregated Flk-1+ cells from Ainv-Notch4 EBs; format: cell-based
Protocol: (§1) Sorted cells were reaggregated for 24 hours in StemPro-34 serum-free medium (hwitrogen) containing 2 mM L-glutamine (GIBCO/BRL), transferrin (200 μg/ml), 0.5 mM ascorbic acid and 4.5×10^−4 M MTG at 3×10^5 cells per ml in ultra-low-attachment 24-well plates (Costar). Single aggregates or pools of aggregates were replated in gelatin-coated 96- or 24-well plates containing SternPro with 2 mM L-glutamine for cardiac culture. Following 2 to 4 days of culture the proportion of aggregates containing contracting cells was scored and the number of Troponin T-positive cells was evaluated by flow cytometric analyses. For the aggregated and cardiac cultures, doxycycline (Dox) was used at 0.5 μg/ml and γ-secretase inhibitor X at 5 μM (dissolved in DMSO). The same concentration of DMSO was added to the control cultures. Medium was changed everyday to provide fresh Dox and inhibitor.
To investigate the potential of Notch4 to initiate a cardiogenic program in this early stage of hemangioblast population, Flk-1^+ cells isolated from day 3.25 Ainv-Notch4 EBs were reaggregated for 24 hours in the presence or absence of Dox as described above. The resulting aggregates were then cultured in gelatin-coated microliter wells containing serum-free media (hereafter referred to as cardiac cultures). These conditions efficiently support cardiomyooyte development from cardiogenic mesoderm (Kouskoff et al. (2005) Proc. Natl. Acad. Sci. 102:13170-13175). Both single aggregates and pools of aggregates were cultured for 2-3 days. Following this maturation step, the cultures of single aggregates were scored for the presence of contracting cells indicative of cardiomyocyte differentiation. None of the aggregates generated in the absence of Dox (−Dox/−Dox) contained contracting cells (FIG. 3A). Rather, these aggregates underwent heniatopoietio differentiation as indicated by the development of hemoglobinized erythroid cells, an observation consistent with the hemangioblast potential of this population. […] (FIG. 3B, right panel). Few cTnT cells were atected among the adhesive cells generated from non-induced aggregates (FIG. 3B, left panel). Cultures of the pooled induced aggregates generated extensive areas of contracting cells. Contracting cells were not detected in the cultures of the non-induced aggregates. Flow cytometric analysis of the differentiated progeny from pooled inducedaggregates confirmed the dramatic cardiogenic effect of Notch4 as greater than 60% of the entire cell population expressed cTnT after 2 days in the cardiac cultures (+Dox/−Dox, FIG. 3C). Less than 1% of the cells generated from the non-induced population expressed cTnT (−Dox/−Dox, FIG. 3C). […]

[2] = tested on: GFP-Bry+/Flk-1- fraction from GFP-Bry/Ainv-Notch4 ES cells; assay: Cardiac assay of reaggregated GFP-Bry+/Flk-1- cells; format: cell-based
Protocol: as §1
Cardiac potential has been mapped to the Flk-1^− fraction of brachytury-expressing mesoderm (GFP-Bry^+/Flk-1^−) at early singes of EB development (Kouskoff et al., supra). To investigate the role of Notch4 during cardiac differentiation of this mesoderm, the GFP cDNA was targeted to the brachyury locus of Ainv cells to enable the overexpression of Notch4 in the GFP-Bry^+/Flk-1^− population. The GFP-Bry^+/Flk-1^− fraction was isolated from clay 3.25 EBs derived from the GFP-Bry/Ainv-Notch4 ES cells, reaggregated for 1 day and the resultant aggregates plated in cardiac cultures. γ-Secretase inhibitor or Dox was added to the cells either during the reaggregation step or to the cardiac cultures to further define the stage specific effects of Notch4. Three days following differentiation of the aggregates in the cardiac cultures, the proportion of cTnT-positive cells and the expression of cardiac genes were analyzed (FIG. 7). […] As expected, this population expressed the spectrum of cardiac genes. Induction of Notch4 during the reaggregation stage (+Dox/−Dox) enhanced cardiomyocyte development over that observed in the control cultures (FIG. 7C). […]

[3] = tested on: Flk-1+ cells from Bry-GFP ES cells on OP9-DL1 cells; assay: Culture of Flk-1+ cells on Dll-1 expressing OP9 stromal cells; format: cell-based; conditions: inhibitor 5 μM; 3 days of culture
Protocol: OP9-DL1 cells described by Schmitt et al. (2004) Nat. Immunol. 5:410-417 were cultured in a 24-well plate and irradiated before use. Day 3.25 EB-derived Flk-1^+ cells (3×10^4 per well) were seeded onto OP9 cells in the same medium used for the cardiac cultures. γ-Secretase inhibitor X (dissolved in DMSO) at 5 μM or a corresponding volume of DMSO was included in the cultures. Medium was changed everyday to supply fresh inhibitor. After 3 days of culture, the cells were harvested and subjected to flow oytometric analysis to determine the number of Troponin T-positive cells.
Following 3 days of culture, areas of contracting cells were detected on the OP9 stromal cells, with approximately 24% of the cells expressing cTnT (FIG. 6A).

[4] = tested on: BL-CFC in day 3.25 Flk-1+ cells; assay: Blast colony (BL-CFC) assay; format: cell-based
Protocol: The blast and hematopoietic colony assays were performed as described Kennedy et al., (2003) Metods Enzymol. 365:39-59. Dox was added at 0.5 μg/ml to induce Notch4 expression and y-secretase inhibitor X (L685,458, Calbiochem) at 5 μM to blook Notch signaling in the:blast colony culture. To generate mixed hemangioblastkardiac colonies, blast colony growth was initiated in standard blast colony cultures containing Dox for 24 hours. The developing colonies were then washed from with methycellulose with IMDM containing 10% FCS to remove Dox. The colonies were recultured in blast colony metycellulose supplemented with Erythropoietin (2 U/ml) and IL-3 (1% conditioned medium). Mixed colonies containing an inner cardiac core surrounded by outer hematopoietic cells were picked for analysis at day 7.
To determine if the BL-CFC is the target of the Notch4-induced fate change, day 3.25 Flk-1^+ cells were cultured in the BL-CFC assay in the presence or absence of Dox. In the absence of Dox, this population generated typical blast colonies that appeared as grape-like clusters of cells. When cultured in the presence of Dox, these cells formed compact colonies of tightly packed cells that were easy to distinguish from the blast colonies (FIG. 5A). The number of these compact colonies was similar to the number of blast cell colonies that developed in the non-induced cultures (FIG. 5B). […] None of these colonies expressed gata-1. As shown previously, blast colonies expressed the endothelial genes as well as gata-1. […] With extended time in the methylcellulose cultures, some of the compact colonies generated contracting cells. To quantify the proportion of colonies that generated contracting cells, individual colonies were picked at day 7 of culture and replated in microtiter wells in the cardiac cultures. Approximately 70% of the compact colonies generated contracting cells between 2 and 7 days of culture. The contracting cells expressed cTnT, confirming that they were cardiomyocytes (FIG. 5D).

[5] = tested on: posterior primitive streak explants; assay: E7.5 primitive streak explant cultures; format: cell-based, mouse; conditions: inhibitor 10 μM; 5 days of culture
Protocol: Female swiss webster mice (Taconic) were mated with male GFP-Bry^+/− mice described by Huber et al., (2004) Nature 432:625-630. Pregnant mice were sacrificed 7.5 days after mating and the embryos were isolated. Dissections were performed under a Leica MZFLIII fluorescence dissecting stereomicrosope to visualize the GFP expression in the primitive streak (PS). Using tungsten needles (Fine Science tools), the PS of GFP-Bry^+/− embryos were isolated and separated into posterior and anterior regions. Individual anterior and posterior PS pieces were plated in gelatin-coated 96-well dishes with medium for cardiac cultures. γ-Secretase inhibitor at 10 μM or a corresponding volume of DMSO was included in the cultures. Medium was changed everyday to provide fresh inhibitor. After 3-5 days, the explants were scored for the presence of contracting foci and harvested for gene expression analysis.
When isolated PPS are plated in the cardiac cultures contracting cardiomyocytes can be detected within 3 to 5 days. To investigate whether Notch signalling is required for the development of the cardiomyocyte lineage from embryo-derived tissues, PPSs were cultured in the presence or absence of γ-secretase inhibitor and then analyzed for the development of contracting cells and for the expression of cardiac genes. […]

Ainv-Notch4 ES cells = assay: Flow cytometric analysis for HA-Notch4 expression after induction; format: cell-based; conditions: one day following Dox 0.5 μg/ml induction
Protocol: Dissociated cells were incubated with biotinylated mAbs (against Flk-1, VE-cad, or CD41) in PBS containing 10% FCS on ice for 30 min. The cells were then washed once and incubated with streptavidin-PE-Cy5 (BD Pharmingen) for another 30 minutes on ice. Following an additional two washes, the cells were analyzed on a FACSCalibur flow cytometer (BectonDicldnson) or sorted on a Moflo cell sorter (Cytomation). For Troponin T or HA staining, cells were fixed in 4% paraformaldehyde (PFA) for 30 minutes and then incubated in a permeabilizing buffer consisting of PBS with 10% FCS and 0.1% saponin (Sigma) for 10 minutes. Following fixing and permeabilization, the cells were washed twice and incubated with an anti-Troponin T (unconjugated mouse antibody, Lab Vision) or anti-HA (conjugated with biotin, Covance) antibody for 30 minutes. After two washes, the cells were incubated with a secondary APC-conjugated goat anti-mouse antibody (for Troponin T antibody) or streptavidin-PE-Cy5 (for biotinylated HA antibody) for 30 minutes. Finally, the cells were washed twice with permeabilizing buffer and then twice with buffer without saponin. […] One day following Dox (0.5 μg/ml) induction, 90% of Ainv-Notch4 ES cells expressed Notch4 as determined by flow cytometric analysis for HA expression (FIG. 2A).

[6] = +Dox+inhibitor/-Dox, inhibitor 5 μM during the reaggregation step
[7] = inhibitor during the aggregation stage (+I/-I)

Structure (SMILES)	expression of cardiac genes [1, 6]	generation of contracting cells [1, 6]	proportion of cTnT-expressing population compared to control ([2]; inhibitor added to the cardiac cultures (-I/+I))	development of cTnT-positive contracting cells [2, 7]	expression levels of the cardiac genes [2, 7]	cardiomyocyte development (cTnT+ cells) [3]	colony type (blast vs compact colonies) ([4]; inhibitor 5 μM together with Dox 0.5 μg/ml, 4 days)	PS explants that generated contracting cells [5]	expression of cardiac genes in explants [5]	Ainv-Notch4 ES cells expressing Notch4 (HA expression) (Ainv-Notch4 ES cells)	cell population expressing cTnT ([1]; +Dox/-Dox, pooled aggregates, 2 days in cardiac cultures)	aggregates containing contracting cells ([1]; Flk-1+ cells from day 4 EBs, Dox 24 hours)	mixed colonies that generated contracting cells ([4]; Dox exposure limited to 24 hours, replated into cardiac cultures)	compact colonies that generated contracting cells ([4]; colonies formed in presence of Dox, picked at day 7, 2 to 7 days in cardiac cultures)
CC(C)C[C@H](NC(=O)[C@H](Cc1ccccc1)C[C@@H](O)[C@H](Cc1ccccc1)NC(=O)OC(C)(C)C)C(=O)N[C@@H](Cc1ccccc1)C(N)=O [γ-secretase inhibitor]	inhibited	inhibited	modestly increased	suppressed	reduced	inhibited	reversal back to blast colonies	Less than 10%	inhibited in some but not all of the explants	–	–	–	–	–
C[C@H]1c2cccc(O)c2C(=O)C2=C(O)[C@]3(O)C(=O)C(C(N)=O)=C(O)[C@@H](N(C)C)[C@@H]3[C@@H](O)[C@@H]21 [Dox, doxycycline]	–	–	–	–	–	–	–	–	–	90%	greater than 60%	25%	45%	Approximately 70%
